The target of the test is T1, MAGE-A11:PCF11 interaction (GST-MAGE-A11 and FAM-PCF11_4) (Homo sapiens, UniProt P43364).
T1 construct: GST-MAGE-A11 MHD (human MAGE-A11 MHD amino acid 218-429); made in house; host or cells: E. coli BL21(DE3)
T1 sequence (P43364 218-429): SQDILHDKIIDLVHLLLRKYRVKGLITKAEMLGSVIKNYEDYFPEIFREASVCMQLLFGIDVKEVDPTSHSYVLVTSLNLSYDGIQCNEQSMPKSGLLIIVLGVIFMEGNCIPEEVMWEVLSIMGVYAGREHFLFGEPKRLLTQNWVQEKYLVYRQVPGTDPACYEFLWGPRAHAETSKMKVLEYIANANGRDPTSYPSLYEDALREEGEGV
Put plainly: TR-FRET primary / single point screen at 15 µM. The class given is binding. A digest of the protocol:
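TR-FRET 520/490 nm emission ratio was read after 90 min at room temperature. Wells held 5 nM GST-MAGE-A11, 5 nM Tb-anti-GST, 200 nM FAM-PCF11_4 and 15 µM compound in Tris pH 7.5 buffer with MgCl2, BSA and DTT. %Inhibition was scaled to DMSO and minus-MAGE-A11 controls.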
(In TR-FRET formats the signal depends on donor and acceptor labels being close together.)

The mark [1] stands for this setting: single point TR-FRET screening of 797 quinoline compounds against MAGE-A11:PCF11.
Where [2] appears, read: single point TR-FRET screening of quinoline compounds against MAGE-A11:PCF11, 15 µM.

Regarding `CCCN(CCCNc1c2ccc(Cl)cc2nc2ccc(OC)cc12)CC(CC)CC` [SJ000520939], the “percent inhibition (TR-FRET)” value under setting [1] is -160.284.
Turning to `CCCN(CCCNc1c2ccc(Cl)cc2nc2ccc(OC)cc12)Cc1ccc2c(c1)OCO2` [SJ000520940], the “percent inhibition (TR-FRET)” value under setting [1] is on record as -193.541.
For the compound `CCCCCN(CCC)CCCNc1c2ccc(Cl)cc2nc2ccc(OC)cc12` [SJ000520941], under setting [1], the “percent inhibition (TR-FRET)” value is given as -210.345.
Turning to `CCCN(CCCNc1c2ccc(Cl)cc2nc2ccc(OC)cc12)Cc1ccc(F)c(F)c1` [SJ000520942], the “percent inhibition (TR-FRET)” value under setting [2] came out at 0.9703.
For `CCCN(CCCNc1c2ccc(Cl)cc2nc2ccc(OC)cc12)Cc1ccc(OC)cc1` [SJ000520943], the “percent inhibition (TR-FRET)” value under setting [1] was -241.432.
`CCCN(CCCNc1c2ccc(Cl)cc2nc2ccc(OC)cc12)Cc1ccccc1F` [SJ000520944]: the “percent inhibition (TR-FRET)” value under setting [1] was -118.554.
Consider `CCCN(CCCNc1c2ccc(Cl)cc2nc2ccc(OC)cc12)Cc1cccc(F)c1` [SJ000520945], for which the “percent inhibition (TR-FRET)” value under setting [2] is reported as -90.1278.
For `CCCN(CCCNc1c2ccc(Cl)cc2nc2ccc(OC)cc12)Cc1ccc(F)cc1` [SJ000520946], under setting [1], the “percent inhibition (TR-FRET)” value is given as -141.659.
Consider `CCCN(CCCNc1c2ccc(Cl)cc2nc2ccc(OC)cc12)Cc1ccccc1[N+](=O)[O-]` [SJ000520947], for which, under setting [1], the “percent inhibition (TR-FRET)” value is -228.339.
Regarding `CCCN(CCCNc1c2ccc(Cl)cc2nc2ccc(OC)cc12)Cc1cccc([N+](=O)[O-])c1` [SJ000520948], the “percent inhibition (TR-FRET)” value under setting [2] was -10.7413.
On the same count and under the same terms, the result for `CCCN(CCCNc1c2ccc(Cl)cc2nc2ccc(OC)cc12)Cc1ccc([N+](=O)[O-])cc1` [SJ000520949] reads -9.039.
`CCCN(CCCNc1c2ccc(Cl)cc2nc2ccc(OC)cc12)Cc1ccccc1OC` [SJ000520950]: the “percent inhibition (TR-FRET)” value under setting [1] is -271.121.
Still for that read-out and setting: the result for `CCCN(CCCNc1c2ccc(Cl)cc2nc2ccc(OC)cc12)Cc1ccccc1C(=O)O` [SJ000520951] reads -258.592.
Turning to `CCCN(CCCNc1c2ccc(Cl)cc2nc2ccc(OC)cc12)Cc1cccc2ccccc12` [SJ000520952], the “percent inhibition (TR-FRET)” value under setting [2] is on record as -40.7667.
For the compound `CCCN(CCCNc1c2ccc(Cl)cc2nc2ccc(OC)cc12)Cc1ccc2ccccc2c1` [SJ000520953], the “percent inhibition (TR-FRET)” value under setting [1] is -129.124.
`CCCN(CCCNc1c2ccc(Cl)cc2nc2ccc(OC)cc12)Cc1cccc(C)c1` [SJ000520954]: the “percent inhibition (TR-FRET)” value under setting [1] is given as -157.809.
Regarding `CCCN(CCCNc1c2ccc(Cl)cc2nc2ccc(OC)cc12)Cc1ccc(N(C)C)cc1` [SJ000520955], under setting [2], the “percent inhibition (TR-FRET)” value is on record as -10.0604.
Same read-out and setting: the result for `CCCN(CCCNc1c2ccc(Cl)cc2nc2ccc(OC)cc12)Cc1ccc(Cl)cc1Cl` [SJ000520956] reads 9.598.
Consider `CCCN(CCCNc1c2ccc(Cl)cc2nc2ccc(OC)cc12)Cc1ccc(OC)c(OC)c1` [SJ000520957], for which the “percent inhibition (TR-FRET)” value under setting [1] is -175.453.
The same measure, in the same setting: the result for `CCCN(CCCNc1c2ccc(Cl)cc2nc2ccc(OC)cc12)CCCc1ccccc1` [SJ000520958] reads -267.24.
Same read-out and setting: the result for `CCCN(CCCNc1c2ccc(Cl)cc2nc2ccc(OC)cc12)CC(C)CC` (stereo not drawn) [SJ000520959] reads -264.817; that for `CCCN(CCCNc1c2ccc(Cl)cc2nc2ccc(OC)cc12)Cc1cc(C)ccc1C` [SJ000520960], -119.324; that for `CCCN(CCCNc1c2ccc(Cl)cc2nc2ccc(OC)cc12)Cc1cccc(OC)c1` [SJ000520961], -244.583.
Same read-out and setting: the result for `CCCN(CCCNc1c2ccc(Cl)cc2nc2ccc(OC)cc12)CCc1ccccc1` [SJ000520962] reads -591.727.
With `CCCCCCN(CCC)CCCNc1c2ccc(Cl)cc2nc2ccc(OC)cc12` [SJ000520963], the “percent inhibition (TR-FRET)” value under setting [1] is on record as -153.702.
On to `COc1ccc2nc3cc(Cl)ccc3c(NCCCNCc3cccn3C)c2c1` [SJ000520985], for which the “percent inhibition (TR-FRET)” value under setting [1] is recorded as -402.468.
Still for that read-out and setting: as for `COc1ccc2nc3cc(Cl)ccc3c(NCCCNCc3cccnc3)c2c1` [SJ000520986], the figure is -408.98.

For the origin of these results see PMC7529893, “Structural basis for substrate recognition and chemical inhibition of oncogenic MAGE ubiquitin ligases” (Nature Communications, 2020).
